Laboratory results taken from publication PMC6010071, “Blocking oestradiol synthesis pathways with potent and selective coumarin derivatives” (Journal of Enzyme Inhibition and Medicinal Chemistry, 2018).

Tests used:
Assay type in all cases: biochemical
recombinant human HSD1 = target: T1, recombinant human HSD1 (Homo sapiens, UniProt P14061); assay: HSD1 inhibition, HPLC assay of [3H]-E1 to [3H]-E2 conversion
T1 construct: made in house; host or cells: Sf9 insect cells
T1 sequence (P14061 1-328): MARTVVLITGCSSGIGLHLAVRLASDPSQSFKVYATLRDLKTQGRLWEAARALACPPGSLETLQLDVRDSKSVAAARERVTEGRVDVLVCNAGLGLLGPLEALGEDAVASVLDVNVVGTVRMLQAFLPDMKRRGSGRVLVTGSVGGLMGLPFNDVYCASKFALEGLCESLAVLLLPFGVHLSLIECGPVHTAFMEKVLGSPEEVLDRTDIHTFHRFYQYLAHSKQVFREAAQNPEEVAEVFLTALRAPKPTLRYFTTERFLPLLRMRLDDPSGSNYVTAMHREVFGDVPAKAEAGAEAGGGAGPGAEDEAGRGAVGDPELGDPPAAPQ
Experimental: The inhibition was determined by HPLC using recombinant human HSD1 and HSD2 proteins as described in a prior study. In short, recombinant human HSD1 and HSD2 were produced in Sf9-insect cells. […] After incubation, the reaction was stopped by addition of […] 10% trichloroacetic acid per sample. […] The ratio of [3H]-E1 converted to [3H]-E2 or vice versa determines the conversion percentage of the samples. Inhibition was measured in three concentrations (100 nM, 1, and 5 µM) in order to follow the progression of inhibition efficiencies. Inhibition efficiencies of the tested inhibitors were calculated by comparing the conversion percentages of the samples including inhibitors with those of conversion controls (without inhibitors).

MAO-B = target: T2, MAO-B (Homo sapiens, UniProt P27338); assay: MAO-B inhibition, continuous spectrophotometric assay
T2 construct: purchased Sigma-Aldrich (St. Louis, MO)
T2 sequence (P27338 1-520): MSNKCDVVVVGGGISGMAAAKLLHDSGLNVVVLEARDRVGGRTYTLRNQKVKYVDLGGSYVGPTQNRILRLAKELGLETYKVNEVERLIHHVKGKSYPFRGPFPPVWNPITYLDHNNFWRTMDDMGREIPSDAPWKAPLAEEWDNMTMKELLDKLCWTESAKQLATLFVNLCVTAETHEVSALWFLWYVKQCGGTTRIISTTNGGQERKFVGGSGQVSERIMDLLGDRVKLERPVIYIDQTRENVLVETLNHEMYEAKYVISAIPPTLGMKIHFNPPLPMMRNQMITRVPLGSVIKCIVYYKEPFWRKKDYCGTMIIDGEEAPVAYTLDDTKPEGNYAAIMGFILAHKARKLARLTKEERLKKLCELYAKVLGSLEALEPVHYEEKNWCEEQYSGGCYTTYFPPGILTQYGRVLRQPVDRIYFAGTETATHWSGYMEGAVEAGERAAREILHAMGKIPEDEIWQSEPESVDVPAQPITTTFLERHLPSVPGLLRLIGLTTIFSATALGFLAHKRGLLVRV
Experimental: The protocol of continuous spectrophotometric assay by Holt et al. was first used to determine the activity of the proteins. […] The protein was first incubated for 30 min at 37 °C in the chromogenic solution and then the substrate tyramine was introduced at 0.5 mM final plate concentration completing the assay volume. […] The assay should produce absorbance change of ∼0.35[23]. […] These protein concentrations were selected to be used to analyse the molecules 1–9. The analysis conditions followed the above-described assay protocol[23] and the activity of tested molecules was measured at 100 µM for MAO-A and at 10 µM for MAO-B. The analysis was performed as single point measurements and the signal was read by the same instrument at the expected assay maximum indicated by the activity measurements, at 30 min for MAO-A and at 2 h for MAO-B, respectively. […] The observed activity was calculated as inhibition percentage (Table 1).

[1] = target: T3, heterologously expressed human CYP1A2 enzyme (Homo sapiens, UniProt P05177); assay: CYP1A2 inhibition; settings: read-out: CYP1A2 inhibition ∼ pIC50 (converted)
T3 construct: purchased Corning Inc., Corning, NY
T3 sequence (P05177 1-516): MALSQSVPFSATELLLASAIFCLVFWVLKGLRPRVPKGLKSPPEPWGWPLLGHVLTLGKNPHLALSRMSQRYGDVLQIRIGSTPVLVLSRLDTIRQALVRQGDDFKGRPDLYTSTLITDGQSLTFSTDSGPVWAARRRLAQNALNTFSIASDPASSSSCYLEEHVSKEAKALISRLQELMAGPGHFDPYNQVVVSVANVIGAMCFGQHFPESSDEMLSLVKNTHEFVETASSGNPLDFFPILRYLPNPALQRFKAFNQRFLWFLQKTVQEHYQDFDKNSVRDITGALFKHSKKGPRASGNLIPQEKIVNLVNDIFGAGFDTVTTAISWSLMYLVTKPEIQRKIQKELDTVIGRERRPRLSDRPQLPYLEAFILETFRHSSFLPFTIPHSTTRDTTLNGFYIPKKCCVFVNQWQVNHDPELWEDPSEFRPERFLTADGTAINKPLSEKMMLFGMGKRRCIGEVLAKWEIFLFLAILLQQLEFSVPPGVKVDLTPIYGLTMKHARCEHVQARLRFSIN
Experimental: Inhibition of CYP1A2 activity was determined using commercial heterologously expressed human CYP1A2 enzyme (Corning Inc., Corning, NY) essentially as described previously.

[2] = target: T4, Aromatase (CYP19A1), human placental microsomes (Homo sapiens, UniProt P11511); assay: Aromatase activity, [3H]-H2O release from [3H]-androstenedione; settings: 50 nM [3H]-androstenedione; inhibitor 60–1000 nM; read-out: Aromatase inhibition ∼ pIC50 (converted)
T4 construct: by using human placental microsomes; from tissue; host or cells: human placental microsomes
T4 sequence (P11511 1-503): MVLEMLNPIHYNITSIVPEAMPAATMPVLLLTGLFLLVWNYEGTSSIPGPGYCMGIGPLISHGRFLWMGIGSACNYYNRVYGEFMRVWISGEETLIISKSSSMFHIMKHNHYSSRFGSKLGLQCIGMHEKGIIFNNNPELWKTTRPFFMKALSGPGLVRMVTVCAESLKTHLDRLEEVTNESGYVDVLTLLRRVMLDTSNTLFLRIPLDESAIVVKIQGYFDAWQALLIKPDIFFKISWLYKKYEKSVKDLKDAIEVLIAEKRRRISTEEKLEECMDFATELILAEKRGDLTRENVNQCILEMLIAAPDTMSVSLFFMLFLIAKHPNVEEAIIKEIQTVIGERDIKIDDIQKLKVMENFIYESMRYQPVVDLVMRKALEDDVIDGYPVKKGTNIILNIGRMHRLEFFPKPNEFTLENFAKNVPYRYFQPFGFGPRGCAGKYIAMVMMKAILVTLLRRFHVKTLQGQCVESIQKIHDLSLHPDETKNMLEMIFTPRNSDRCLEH
Experimental: Aromatase (CYP19A1) activity was measured as described previously[22] by using human placental microsomes and 50 nM [3H]-androstenedione as a substrate and inhibitor concentrations in the range of 60–1000 nM. Aromatase activities were measured as released [3H]-H2O in Optiphase Hisafe 2 scintillation liquid (Perkin Elmer, Waltham, MA) with a Wallac 1450 MicroBeta Trilux scintillation counter (Perkin Elmer, Waltham, MA). As a positive control for aromatase inhibition, 1 µM finrozole (generous gift from Olavi Pelkonen, University of Oulu, Finland) was used.

recombinant human HSD2 = target: T5, recombinant human HSD2 (Homo sapiens, UniProt P37059); assay: HSD2 inhibition, HPLC assay of [3H]-E2 to [3H]-E1 conversion
T5 construct: made in house; host or cells: Sf9 insect cells
T5 sequence (P37059 1-387): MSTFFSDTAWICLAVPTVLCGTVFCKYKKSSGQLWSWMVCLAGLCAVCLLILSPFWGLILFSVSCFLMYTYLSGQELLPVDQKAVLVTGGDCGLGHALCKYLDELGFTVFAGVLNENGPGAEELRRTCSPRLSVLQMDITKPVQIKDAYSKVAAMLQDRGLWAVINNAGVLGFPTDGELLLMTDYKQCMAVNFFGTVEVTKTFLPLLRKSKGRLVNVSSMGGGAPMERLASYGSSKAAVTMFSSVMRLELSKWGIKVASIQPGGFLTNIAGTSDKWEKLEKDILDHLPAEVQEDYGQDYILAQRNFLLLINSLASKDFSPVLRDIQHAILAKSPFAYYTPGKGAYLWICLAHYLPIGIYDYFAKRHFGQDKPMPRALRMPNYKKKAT
Experimental: The inhibition was determined by HPLC using recombinant human HSD1 and HSD2 proteins as described in a prior study. In short, recombinant human HSD1 and HSD2 were produced in Sf9-insect cells. […]. After incubation, the reaction was stopped by addition of […] 10% trichloroacetic acid per sample. After incubation the substrate and the product of enzymatic conversion [3H]-E1 and [3H]-E2 were separated and quantified by HPLC (Alliance 2790, Waters, Milford, MA) connected to an online counter (Packard Flow Scintillation Analyser; Perkin Elmer Inc., Waltham, […]). The ratio of [3H]-E1 converted to [3H]-E2 or vice versa determines the conversion percentage of the samples. Inhibition was measured in three concentrations (100 nM, 1, and 5 µM) in order to follow the progression of inhibition efficiencies. Inhibition efficiencies of the tested inhibitors were calculated by comparing the conversion percentages of the samples including inhibitors with those of conversion controls (without inhibitors).

HSD1 inhibition (in words) (recombinant human HSD1) | inhibition at 0.1 µM (recombinant human HSD1; 100 nM, average of two measurements, except for compounds 8 and 9, read-out: HSD1 inhibition at 100 nM) [%] | inhibition at 1 µM (recombinant human HSD1; 1 µM, average of three measurements, except for compounds 8 and 9, read-out: HSD1 inhibition at 1 µM) [%] | IC50 (recombinant human HSD1; estimated from three measurements at 1 µM, average ± standard error, read-out: HSD1 inhibition ∼ pIC50 (converted)) [nM] | MAO-B inhibition (in words) (MAO-B) | inhibition at 10 µM (MAO-B; 10 µM, single point, read at 2 h, read-out: MAO-B inhibition at 10 µM) [%] | IC50 [1] [nM] | IC50 [2] [nM] | inhibition at 0.1 µM (recombinant human HSD2; 100 nM, control) [%] | inhibition at 1 µM (recombinant human HSD2; read-out: HSD2 inhibition at 1 µM) [%] | SMILES
blocking neither HSD1 nor MAO-B | 1 | 1 | > 5010 | blocking neither HSD1 nor MAO-B | 11 | 115 | 77.6 |  |  | O=c1oc2ccccc2cc1-n1ccnc1 [Compound 10, 3–(1H-imidazol-1-yl)-2H-chromen-2-one]
 |  |  |  |  |  |  |  | 62.3 | 100 | O=c1c(Oc2ccc(Cl)cc2)coc2cc(O)cc(O)c12 [HM2001, 3–(4-Chlorophenoxy)-5,7-dihydroxychromen-4-one, reference compound]
